Results published in article PMC7887271, “Fast acting allosteric phosphofructokinase inhibitors block trypanosome glycolysis and cure acute African trypanosomiasis in mice” (Nature Communications, 2021).

Legend:
[1] = Experimentally determined pKa and logP (Pharmorphix); type: physicochemical
Protocol: pKa and […] values for selected CTCB compounds were determined experimentally by the company Pharmorphix (www.matthey.com) and calculated pKas were determined using ChemAxon.software (https://chemaxon.com).

hPFK-M = target: T1, hPFK-M (Homo sapiens, UniProt P08237); test: ALDO/G3PDH/TIM linked enzyme assay, human PFK-M; type: biochemical; details: aldolase/TIM linked assay, 25 °C; highest concentration 100 µM
T1 construct: made in house; host or cells: PFK-deficient Saccharomyces cerevisiae
T1 sequence (P08237 1-780): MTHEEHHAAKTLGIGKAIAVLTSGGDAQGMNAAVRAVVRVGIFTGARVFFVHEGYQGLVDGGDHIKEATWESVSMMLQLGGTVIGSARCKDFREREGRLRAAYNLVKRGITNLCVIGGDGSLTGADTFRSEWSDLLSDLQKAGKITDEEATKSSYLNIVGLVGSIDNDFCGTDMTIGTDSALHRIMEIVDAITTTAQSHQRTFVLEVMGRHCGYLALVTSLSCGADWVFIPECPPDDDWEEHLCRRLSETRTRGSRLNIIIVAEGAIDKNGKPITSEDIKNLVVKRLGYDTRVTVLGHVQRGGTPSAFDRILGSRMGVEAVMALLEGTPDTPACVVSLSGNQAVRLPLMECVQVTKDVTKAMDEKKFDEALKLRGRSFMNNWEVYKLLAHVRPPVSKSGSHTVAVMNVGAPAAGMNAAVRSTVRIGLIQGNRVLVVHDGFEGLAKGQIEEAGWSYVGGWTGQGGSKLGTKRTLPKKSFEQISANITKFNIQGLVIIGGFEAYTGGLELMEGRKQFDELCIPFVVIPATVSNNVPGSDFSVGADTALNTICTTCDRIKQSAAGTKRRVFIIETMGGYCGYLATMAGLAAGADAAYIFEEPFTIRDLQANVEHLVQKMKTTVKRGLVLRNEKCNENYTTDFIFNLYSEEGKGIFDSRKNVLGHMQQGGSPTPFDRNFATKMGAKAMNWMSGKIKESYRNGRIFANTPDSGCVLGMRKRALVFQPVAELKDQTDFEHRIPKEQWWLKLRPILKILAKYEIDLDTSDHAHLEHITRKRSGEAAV
Protocol: Enzyme activity was measured using an aldolase/TIM linked assay at 25 °C. […] Experiments were carried out in duplicate. Data are presented as mean values ± standard deviation. […] Source data are provided as a Source Data File. b Kill time of CTCB-405 compared with existing HAT drugs in the clinic. […] Over 99% of trypanosomes were killed in under 30 min compared with much slower killing rates for the other drugs. The points on the graph for CTCB-405 were determined from two independent biological replicate experiments with each time point measured twice (using duplicate technical replicates). The ESD for each point on the graph is between 0.7 and 1.4%. For drugs in clinical use each point on the graph is the average of two technical replicates from one experiment (with a maximum difference of 7.8% for any of the points). Source data are provided as a Source Data File.
In the PFK/PYK/LDH assay, the linked PYK activity acts to convert the ADP produced by PFK back to ATP. As ATP is an inhibitor of human PFK (but not TbPFK) at concentrations higher than ~0.5 mM the regeneration of ATP is likely to affect the assay readout. […] TIM interconverts GA3P and DHAP, and DHAP is reduced to glycerol 3-phosphate by G3PD, alongside the oxidation of NADH to NAD^+, which was measured by observing the change in UV absorbance at 340 nm for 10 minutes at 25° C using a Spectramax© M5 Multimode plate reader. […]

Structure (SMILES): CN(C)CCn1ccc2c(ccn2Cc2ccc(Cl)c(Cl)c2)c1=O [CTCB-405, 1-[(3,4-Dichlorophenyl)methyl]-5-[2-(dimethylamino)ethyl] pyrrolo[3,2-c]pyridin-4-one]
- logP ([1]; read-out: Measured logP): 3.29
- pKa ([1]; read-out: Measured pKa): 8.09
- inhibition of hPFK-M (hPFK-M): no significant inhibition
